{"source": "patent US20250375395A1", "about": "(priority 2016, published 2025)", "origin": "cited, not measured here", "conditions": "carbonic acid/sodium bicarbonate", "data": [{"smiles": "O=C([O-])O.[Na+]", "note": "[sodium bicarbonate]", "values": [{"measurement": "pKa", "value": 6.4}]}]}
